From patent publication US9458110B2, “Phenylpyrazole derivatives as potent ROCK1 and ROCK2 inhibitors” (BRISTOL-MYERS SQUIBB COMPANY, priority 2013, dated 2016)

Experiments:
ROCK2 = ROCK2 (Homo sapiens (Human), UniProt O75116); assay: ROCK assay (Caliper LABCHIP peptide phosphorylation), ROCK2; assay type: biochemical; settings: 5 μM ATP, 1.5 μM peptide substrate;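 also: reaction stopped with EDTA, then phosphorylated and unphosphorylated peptide resolved by microfluidic electrophoresis, kinase inhibition computed at each compound concentration in dose-response series, DMSO under 2%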
ROCK1 = ROCK1 (Homo sapiens (Human), UniProt Q13464); assay: ROCK assay (Caliper LABCHIP peptide phosphorylation), ROCK1; assay type: biochemical; settings: 5 μM ATP, 1.5 μM peptide substrate;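 also: Read-out is separation of phosphorylated from unphosphorylated peptide, with kinase activity inhibition computed at every concentration of a dose-response series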
Chain of ROCK1 (Q13464 whole entry, species assumed): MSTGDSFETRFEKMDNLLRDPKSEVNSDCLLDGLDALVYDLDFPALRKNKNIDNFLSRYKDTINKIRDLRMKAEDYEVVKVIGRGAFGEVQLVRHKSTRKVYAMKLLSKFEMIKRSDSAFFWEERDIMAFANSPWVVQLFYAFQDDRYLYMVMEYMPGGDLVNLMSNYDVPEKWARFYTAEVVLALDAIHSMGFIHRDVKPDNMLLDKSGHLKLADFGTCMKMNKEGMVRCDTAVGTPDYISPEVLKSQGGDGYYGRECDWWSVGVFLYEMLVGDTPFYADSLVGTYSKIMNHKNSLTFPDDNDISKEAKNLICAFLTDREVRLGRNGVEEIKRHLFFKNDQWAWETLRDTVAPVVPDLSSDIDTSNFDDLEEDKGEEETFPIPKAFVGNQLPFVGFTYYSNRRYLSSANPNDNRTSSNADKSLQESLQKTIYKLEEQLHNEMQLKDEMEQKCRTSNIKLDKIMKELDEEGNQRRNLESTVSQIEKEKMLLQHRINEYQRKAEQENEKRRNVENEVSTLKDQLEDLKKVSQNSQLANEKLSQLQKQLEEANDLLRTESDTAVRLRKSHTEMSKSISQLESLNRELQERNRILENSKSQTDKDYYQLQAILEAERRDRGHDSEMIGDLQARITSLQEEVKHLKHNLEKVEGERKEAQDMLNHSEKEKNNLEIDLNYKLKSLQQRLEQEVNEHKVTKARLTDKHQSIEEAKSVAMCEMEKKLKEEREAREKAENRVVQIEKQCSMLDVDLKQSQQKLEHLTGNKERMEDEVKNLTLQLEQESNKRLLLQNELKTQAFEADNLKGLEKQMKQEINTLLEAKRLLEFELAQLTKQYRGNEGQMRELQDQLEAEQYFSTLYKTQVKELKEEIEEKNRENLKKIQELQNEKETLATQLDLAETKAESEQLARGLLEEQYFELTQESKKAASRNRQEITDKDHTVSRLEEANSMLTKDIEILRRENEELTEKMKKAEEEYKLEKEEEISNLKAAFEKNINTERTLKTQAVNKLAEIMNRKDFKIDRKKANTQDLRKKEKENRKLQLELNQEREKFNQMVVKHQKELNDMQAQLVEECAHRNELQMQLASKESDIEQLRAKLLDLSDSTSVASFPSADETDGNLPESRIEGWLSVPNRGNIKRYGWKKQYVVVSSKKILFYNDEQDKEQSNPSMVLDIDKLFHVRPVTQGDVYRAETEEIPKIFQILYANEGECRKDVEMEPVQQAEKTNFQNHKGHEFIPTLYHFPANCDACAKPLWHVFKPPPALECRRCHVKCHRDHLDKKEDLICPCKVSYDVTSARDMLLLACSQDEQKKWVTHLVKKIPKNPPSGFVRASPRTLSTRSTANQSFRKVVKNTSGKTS

Chain of ROCK2 (O75116 whole entry, species assumed): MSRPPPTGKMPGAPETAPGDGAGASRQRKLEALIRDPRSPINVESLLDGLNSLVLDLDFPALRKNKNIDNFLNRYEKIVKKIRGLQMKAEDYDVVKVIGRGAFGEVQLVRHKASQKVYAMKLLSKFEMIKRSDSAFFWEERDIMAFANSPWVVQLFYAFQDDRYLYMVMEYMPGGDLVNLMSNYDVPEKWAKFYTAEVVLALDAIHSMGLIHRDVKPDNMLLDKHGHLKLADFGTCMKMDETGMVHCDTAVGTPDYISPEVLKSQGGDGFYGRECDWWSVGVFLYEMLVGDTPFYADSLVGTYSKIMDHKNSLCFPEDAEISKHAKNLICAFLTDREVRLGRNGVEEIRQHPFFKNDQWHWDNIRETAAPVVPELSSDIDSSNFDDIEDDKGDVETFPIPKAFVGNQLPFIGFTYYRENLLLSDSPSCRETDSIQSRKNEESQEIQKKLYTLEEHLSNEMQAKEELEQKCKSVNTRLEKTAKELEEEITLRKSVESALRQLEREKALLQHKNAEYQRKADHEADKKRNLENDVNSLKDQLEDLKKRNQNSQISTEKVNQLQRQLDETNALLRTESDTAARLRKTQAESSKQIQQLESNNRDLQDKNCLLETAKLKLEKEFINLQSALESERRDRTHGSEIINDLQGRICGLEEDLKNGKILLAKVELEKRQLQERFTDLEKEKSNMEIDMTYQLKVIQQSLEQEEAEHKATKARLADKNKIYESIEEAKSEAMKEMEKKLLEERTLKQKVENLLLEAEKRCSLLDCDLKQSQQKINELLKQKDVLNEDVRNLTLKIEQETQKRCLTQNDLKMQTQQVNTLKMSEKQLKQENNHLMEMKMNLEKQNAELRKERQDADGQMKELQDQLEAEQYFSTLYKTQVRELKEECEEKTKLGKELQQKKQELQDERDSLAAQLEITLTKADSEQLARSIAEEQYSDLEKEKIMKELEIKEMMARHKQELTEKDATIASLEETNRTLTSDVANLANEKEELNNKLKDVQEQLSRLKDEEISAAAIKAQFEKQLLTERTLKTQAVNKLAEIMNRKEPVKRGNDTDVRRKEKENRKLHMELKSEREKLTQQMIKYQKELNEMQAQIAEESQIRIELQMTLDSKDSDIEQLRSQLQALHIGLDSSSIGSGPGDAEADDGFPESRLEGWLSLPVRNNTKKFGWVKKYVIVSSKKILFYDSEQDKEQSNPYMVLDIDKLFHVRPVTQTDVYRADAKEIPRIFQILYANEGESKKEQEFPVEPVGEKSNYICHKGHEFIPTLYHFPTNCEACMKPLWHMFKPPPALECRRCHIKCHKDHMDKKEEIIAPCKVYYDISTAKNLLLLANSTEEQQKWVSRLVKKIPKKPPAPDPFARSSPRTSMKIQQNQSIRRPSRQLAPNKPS

IC50 (ROCK2) [nM] | IC50 (ROCK1) [nM] | SMILES
52 | 94.6 | COc1cc(C(=O)NCCc2cccc(C(F)(F)F)c2)ccc1-c1cn[nH]c1 [Example 120, 3-methoxy-4-(1H-pyrazol-4-yl)-N-{2-[3-(trifluoro-methyl)phenyl]ethyl} benzamide]
78.1 | 166 | COc1cc(C(=O)NCCc2ccc(C(F)(F)F)cc2)ccc1-c1cn[nH]c1 [Example 121, 3-methoxy-4-(1H-pyrazol-4-yl)-N-{2-[4-(trifluoro-methyl)phenyl]ethyl} benzamide]
23.2 | 35.5 | COc1cc(C(=O)NCC(O)c2ccccc2Cl)ccc1-c1cn[nH]c1 (stereo not drawn) [Example 122, N-[2-(2-chlorophenyl)-2-hydroxyethyl]-3-methoxy-4-(1H-pyrazol-4-yl)benzamide]
41.6 | 84.1 | COc1cc(C(=O)NC[C@@H](O)c2ccccc2)ccc1-c1cn[nH]c1 [Example 123, N-[(2S)-2-hydroxy-2-phenylethyl]-3-methoxy-4-(1H-pyrazol-4-yl)benzamide]
7 | 21.5 | COc1cc(C(=O)NCCc2cccc(O)c2)ccc1-c1cn[nH]c1 [Example 124, N-[2-(3-hydroxyphenyl)ethyl]-3-methoxy-4-(1H-pyrazol-4-yl)benzamide]
1350 | 155 | COc1ccccc1CCNC(=O)c1ccc(-c2cn[nH]c2)c(OC)c1 [Example 126, 3-methoxy-N-[2-(2-methoxyphenyl)ethyl]-4-(1H-pyrazol-4-yl)benzamide]
32.1 | 23.4 | COc1cc(C(=O)NC[C@@H](O)c2cccc(Cl)c2)ccc1-c1cn[nH]c1 [Example 127, N-[(2S)-2-(3-chlorophenyl)-2-hydroxyethyl]-3-methoxy-4-(1H-pyrazol-4-yl)benzamide]
5.7 | 12.5 | COc1cc(C(=O)N[C@H](CO)Cc2ccccc2)ccc1-c1cn[nH]c1 [Example 128, N-[(2S)-1-hydroxy-3-phenylpropan-2-yl]-3-methoxy-4-(1H-pyrazol-4-yl)benzamide]
33.1 | 34 | COc1cc(C(=O)NC[C@@H](C)c2ccccc2)ccc1-c1cn[nH]c1 [Example 129, 3-methoxy-N-[(2S)-2-phenylpropyl]-4-(1H-pyrazol-4-yl)benzamide]
33.4 | 53.7 | COc1cc(C(=O)NC[C@H](O)c2ccccc2)ccc1-c1cn[nH]c1 [Example 130, N-[(2R)-2-hydroxy-2-phenylethyl]-3-methoxy-4-(1H-pyrazol-4-yl)benzamide]
12.7 | 42 | COc1cc(C(=O)NCC(O)c2cccc(O)c2)ccc1-c1cn[nH]c1 (stereo not drawn) [Example 131, N-[2-hydroxy-2-(3-hydroxyphenyl)ethyl]-3-methoxy-4-(1H-pyrazol-4-yl)benzamide]
34 | 77.9 | COc1cc(C(=O)N[C@@H](CO)Cc2ccccc2)ccc1-c1cn[nH]c1 [Example 133, N-[(2R)-1-hydroxy-3-phenylpropan-2-yl]-3-methoxy-4-(1H-pyrazol-4-yl)benzamide]
0.82 | 6.53 | COC(=O)c1cc(CNC(=O)c2ccc(-c3cn[nH]c3)c(OC)c2)ccc1F [Example 134, methyl 2-fluoro-5-({[3-methoxy-4-(1H-pyrazol-4-yl)phenyl] formamido}methyl)benzoate]
8.24 | 32.6 | COc1cc(C(=O)NCc2cccc(C#N)c2)ccc1-c1cn[nH]c1 [Example 138, N-[(3-cyanophenyl)methyl]-3-methoxy-4-(1H-pyrazol-4-yl)benzamide]
82.5 | 365 | COc1cc(C(=O)NCc2ccc(C#N)cc2)ccc1-c1cn[nH]c1 [Example 143, N-[(4-cyanophenyl)methyl]-3-methoxy-4-(1H-pyrazol-4-yl)benzamide]
6.76 | 7.39 | COc1cc(C(=O)NC(C)c2cccc(O)n2)ccc1-c1cn[nH]c1 (stereo not drawn) [Example 159, N-[1-(6-hydroxypyridin-2-yl)ethyl]-3-methoxy-4-(1H-pyrazol-4-yl)benzamide]
2.94 | 11.7 | COc1cc(C(=O)NC(CO)c2ccccc2F)ccc1-c1cn[nH]c1 (stereo not drawn) [Example 162, N-[1-(2-fluorophenyl)-2-hydroxyethyl]-3-methoxy-4-(1H-pyrazol-4-yl)benzamide]

Continued, compound first:

SMILES | IC50 (ROCK2) [nM] | IC50 (ROCK1) [nM]
COc1cc(C(=O)NCC(c2ccccc2)N2CCCC2)ccc1-c1cn[nH]c1 (stereo not drawn) [Example 125, 3-methoxy-N-[2-phenyl-2-(pyrrolidin-1-yl)ethyl]-4-(1H-pyrazol-4-yl)benzamide] | 84.9 | 156
COc1cc(C(=O)NCC(c2ccccc2)N2CCNCC2)ccc1-c1cn[nH]c1 (stereo not drawn) [Example 132, 3-methoxy-N-[2-phenyl-2-(piperazin-1-yl)ethyl]-4-(1H-pyrazol-4-yl)benzamide] | 103 | 180
COc1cccc(C(C)NC(=O)c2ccc(-c3cn[nH]c3)c(OC)c2)n1 (stereo not drawn) [Example 135, 3-methoxy-N-[1-(6-methoxypyridin-2-yl)ethyl]-4-(1H-pyrazol-4-yl)benzamide] | 16.9 | 73.4
C[C@@H](NC(=O)c1ccc(-c2cn[nH]c2)c(Cn2ccnn2)c1)c1ccccc1 [Example 137, N-[(1R)-1-phenylethyl]-4-(1H-pyrazol-4-yl)-3-(1H-1,2,3-triazol-1-ylmethyl) benzamide] | 1900 | > 2000
COc1ccc(F)c(C(C)NC(=O)c2ccc(-c3cn[nH]c3)c(OC)c2)c1 (stereo not drawn) [Example 139, N-[1-(2-fluoro-5-methoxy-phenyl)ethyl]-3-methoxy-4-(1H-pyrazol-4-yl)benzamide] | 47.2 | 172
COc1ccc(F)c(C(C)NC(=O)c2ccc(-c3cn[nH]c3)c(OC)c2)c1 (stereo not drawn) [Example 140, N-[1-(2-fluoro-5-methoxyphenyl)ethyl]-3-methoxy-4-(1H-pyrazol-4-yl)benzamide] | 0.83 | 3.36
COc1cc(C(=O)NC(CCO)c2ccccc2)ccc1-c1cn[nH]c1 (stereo not drawn) [Example 145, N-(3-hydroxy-1-phenylpropyl)-3-methoxy-4-(1H-pyrazol-4-yl)benzamide] | 282 | 301
COc1cc(C(=O)NC(CCO)c2ccccc2)ccc1-c1cn[nH]c1 (stereo not drawn) [Example 146, N-(3-hydroxy-1-phenylpropyl)-3-methoxy-4-(1H-pyrazol-4-yl)benzamide] | 2.17 | 7.8
COc1ccc(F)c(C(C)NC(=O)c2ccc(-c3c[nH]nc3C)cc2OC)c1 (stereo not drawn) [Example 147, N-[1-(2-fluoro-5-methoxyphenyl)ethyl]-2-methoxy-4-(3-methyl-1H-pyrazol-4-yl)benzamide] | 5.09 | 23.5
COc1ccc(F)c(CNC(=O)c2ccc(-c3cn[nH]c3)c(C)c2)c1 [Example 148, N-[(2-fluoro-5-methoxyphenyl)methyl]-3-methyl-4-(1H-pyrazol-4-yl)benzamide] | 51.2 | 174
Cc1cc(C(=O)NCc2ccc(F)cc2Cl)ccc1-c1cn[nH]c1 [Example 149, N-[(2-chloro-4-fluorophenyl)methyl]-3-methyl-4-(1H-pyrazol-4-yl)benzamide] | 11.6 | 16.9
Cc1cc(C(=O)N[C@H](C)c2ccc(F)cc2)ccc1-c1cn[nH]c1 [Example 150, N-[(1R)-1-(4-fluorophenyl)ethyl]-3-methyl-4-(1H-pyrazol-4-yl)benzamide] | 18.9 | 13.1
Cc1cc(C(=O)NCc2c(F)cccc2Cl)ccc1-c1cn[nH]c1 [Example 151, N-[(2-chloro-6-fluorophenyl)methyl]-3 methyl-4-(1H-pyrazol-4-yl)benzamide] | 9.83 | 19.7
COc1ccc(F)c(C(C)NC(=O)c2ccc(-c3c[nH]nc3C)cc2OC)c1 (stereo not drawn) [Example 152, N-[1-(2-fluoro-5-methoxyphenyl)ethyl]-2-methoxy-4-(3-methyl-1H-pyrazol-4-yl)benzamide] | 627 | 1510
COc1cccc([C@@H](C)NC(=O)c2ccc(-c3c(C)n[nH]c3C)c(C)c2)c1 [Example 153, 4-(3,5-dimethyl-1H-pyrazol-4-yl)-N-[(1R)-1-(3-methoxyphenyl)ethyl]-3-methylbenzamide] | 415 | > 2000
C[C@@H](NC(=O)c1ccc(-c2cn[nH]c2)c(OCC(C)(C)O)c1)c1ccccc1 [Example 154, 3-(2-hydroxy-2-methylpropoxy)-N-[(1R)-1-phenylethyl]-4-(1H-pyrazol-4-yl)benzamide] | 452 | 1790
COC(=O)C[C@@H](NC(=O)c1ccc(-c2cn[nH]c2)c(C)c1)c1ccccc1 [Example 155, methyl (3R)-3-{[3-methyl-4-(1H-pyrazol-4-yl)phenyl] formamido}-3-phenyl-propanoate] | 70.2 | 405
C[C@@H](NC(=O)c1ccc(-c2cn[nH]c2)c(OC(F)F)c1)c1ccccc1 [Example 156, 3-(difluoro-methoxy)-N-[(1R)-1-phenylethyl]-4-(1H-pyrazol-4-yl)benzamide] | 4 | 11.4
COC[C@@H](NC(=O)c1ccc(-c2cn[nH]c2)c(OC)c1)c1ccccc1 [Example 157, 3-methoxy-N-[(1S)-2-methoxy-1-phenylethyl]-4-(1H-pyrazol-4-yl)benzamide] | 3.94 | 10.3
O=C(N[C@H](CO)c1ccccc1)c1ccc(-c2cn[nH]c2)c(OC(F)F)c1 [Example 160, 3-(difluoro-methoxy)-N-[(1S)-2-hydroxy-1-phenylethyl]-4-(1H-pyrazol-4-yl)benzamide] | 6.94 | 17.1
COc1cccc(CNC(=O)c2ccc(-c3cn[nH]c3)cc2CO)c1 [Example 161, 2-(hydroxymethyl)-N-[(3-methoxyphenyl)methyl]-4-(1H-pyrazol-4-yl)benzamide] | 185 | 792
C[C@@H](NC(=O)c1ccc(-c2cn[nH]c2)c(OC(F)F)c1)c1ccc(F)cc1 [Example 164, 3-(difluoro-methoxy)-N-[(1R)-1-(4-fluorophenyl)ethyl]-4-(1H-pyrazol-4-yl)benzamide] | 7.49 | 22.5
